Source: PMC8588131, “Synthesis, In Silico Studies, and Evaluation of Syn and Anti Isomers of N-Substituted Indole-3-carbaldehyde Oxime Derivatives as Urease Inhibitors against Helicobacter pylori” (Molecules, 2021)

Assays:
[1] = test system: Macrotyloma uniflorum urease; assay: in vitro urease inhibitory assay (modified Berthelot reaction, indophenol blue, absorbance at 630 nm); type: biochemical, Macrotyloma uniflorum (Horse gram); details: for Maximum Percentage of Inhibition: maximum over tested range 5.00-35.00 μg/mL; for IC50: urease extracted from Macrotyloma uniflorum, thiourea as standard inhibitor, 37 °C, pH 7.2
Description: All synthesized oxime compounds (2, 6, 7, 8, and 9) were evaluated for the in vitro urease inhibitory activity using a colorimetric method. This method involves the formation of indophenol blue in a basic medium where the modified Berthelot reaction is used. The urease enzyme required for the assay was extracted from Macrotyloma uniflorum (Horse gram) with the activity of 0.1013 U, and thiourea was used as the standard inhibitor [34]. The amount of ammonia produced within a given period of time was quantified using a standard calibration method.
Modified Berthelot method was used for the determination of the amount of produced ammonia, and thereby for the quantification of the urease inhibitory activities of the synthesized oxime derivatives (compounds 2, 6, 7, 8, and 9) by measuring their absorbance at 630 nm. All the test compounds and thiourea were prepared by dissolving 2 mg of each compound in 20 mL of 1.25% DMF - buffer solution (pH = 7.2, Na2HPO4 = 0.067 mol dm^−3, KH2PO4 = 0.033 mol dm^−3). DMF doesn’t show any inhibitory effect on urease activity. Initially, a 96 well plate filled with 10 μL of urease enzyme (0.01 U) and 10–70 μL of the test compound was placed in the plate reader and incubated at 37 °C for 15 min. (Concentration of each sample was changed by varying the volume of test compounds from 10 to 70 μL.) Then, to each well, 10 μL of the buffer, 10 μL of EDTA (0.025 mol dm^−3), and 10 μL of urea (0.64 mol dm^−3) were added. After that, 80–20 μL of distilled water was added accordingly to adjust the total volume to 130 μL and incubated in plate reader for another 20 min at 37 °C. Then 35 μL of each coloring agents ((coloring agent A—1% (w/v) phenol, 0.005% (w/v) sodium nitroprusside and coloring agent B—0.5% (w/v) NaOH, 0.05% (v/v) NaOCl)) were introduced to each well, and the plate was incubated in plate reader for another 50 min at 37 °C for the development of indophenol blue color. At the end of the 50 min, the absorbance of each sample was measured at the absorbance wavelength of 630 nm. A control test was conducted to quantify the total hydrolysis of urea in the presence of urease (C). Negative control was carried out to quantify the spontaneous hydrolysis of urea in the absence of the urease enzyme (N). For each sample (T1–7), a negative control test (N1–7) was performed in the absence of the urease enzyme. All experiments were performed thrice. The percentage inhibition of the urease enzyme was calculated using Equation (1). (1) percentage inhibition=[[AC−AN]−[AT1−AN1]/[AC−AN]]×100 where • AC = Absorbance of the control sample (C) • AN = Absorbance of the negative control sample (N) • AT1−7 = Absorbance of the test sample (T1 to T7) • AN1−7 = Absorbance of the negative control of the test sample (N1 to N7)

Compound	Percentage inhibition (± SEM) ([1]; at 5.00 μg/mL)	Percentage inhibition (± SEM) ([1]; at 10.00 μg/mL)	Percentage inhibition (± SEM) ([1]; at 15.00 μg/mL)	Percentage inhibition (± SEM) ([1]; at 20.00 μg/mL)	Percentage inhibition (± SEM) ([1]; at 25.00 μg/mL)	Percentage inhibition (± SEM) ([1]; at 30.00 μg/mL)	Maximum Percentage of Inhibition [1]	IC50 [1]	melting point
O/N=C\c1c[nH]c2ccccc12 [Compound 2, (Z)-N-hydroxy-1-(1H-indole-3-yl)methanimine]	17.46 ± 0.71%	24.56 ± 0.53%	29.28 ± 0.52%	39.40 ± 0.65%	57.27 ± 0.63%	64.87 ± 0.93%	67.81%	141 ± 7.5 µM	
NC(N)=S [Thiourea, thiourea, reference compound]	11.24 ± 0.28%	22.61 ± 0.49%	38.41 ± 0.63%	61.54 ± 0.53%	74.36 ± 0.50%	81.49 ± 0.67%	85.14%	239 ± 4.8 µM	
Cn1cc(/C=N\O)c2ccccc21 [Compound 6, (Z)-N-hydroxy-1-(1-methyl-1H-indol-3-yl)methanimine]	24.57 ± 1.22%	28.15 ± 0.81%	29.91 ± 0.90%	40.38 ± 0.24%	55.76 ± 0.60%	73.07 ± 0.35%	77.05%	140 ± 4.5 µM	112 to 115 °C
O/N=C/c1cn(Cc2ccccc2)c2ccccc12 [Compound 9, (E)-1-(1-benzyl-1H-indol-3-yl)-N-hydroxymethanimine]	33.06 ± 1.23%		72.38 ± 0.77%	77.61 ± 1.55%	83.21 ± 0.82%	84.89 ± 0.47%	86.09%	34.5 ± 0.8 µM	140 to 143 °C
O/N=C\c1cn(Cc2ccccc2)c2ccccc12 [Compound 8, (Z)-1-(1-benzyl-1H-indol-3-yl)-N-hydroxymethanimine]	36.36 ± 0.79%	44.39 ± 0.70%	58.52 ± 0.58%	67.99 ± 1.01%	76.49 ± 1.24%	79.64 ± 0.88%	83.78%	51.6 ± 3.5 µM	132 to 134 °C
Cn1cc(/C=N/O)c2ccccc21 [Compound 7, (E)-N-hydroxy-1-(1-methyl-1H-indol-3-yl)methanimine]	22.74 ± 0.93%	31.87 ± 0.59%	38.14 ± 1.25%	44.38 ± 0.35%	48.92 ± 0.67%	53.01 ± 0.85%	57.17%	153 ± 1.6 µM	126 to 129 °C
